Entries after “also recorded” stand apart in the source; their conditions may differ.
How the values were obtained:
JFH-1 HCV = conditions: viral titer at 5 μM or 15 μM compared to untreated control
Excerpt: In vitro assay for anti-HCV efficacy. HCV studies typically involve infected patients and chimpanzees. However, recently, a robust HCV infection system was developed with cells derived from the Huh-7 human hepatoma cell line. It is based on the unique JFH-1 HCV consensus cDNA derived from an HCV patient. Using reverse genetics, the infectious virus can be rescued from this HCV clone. The recovered viable JFH virus can be passaged serially in Huh-7 cells. For this reason, this system is amenable for evaluating the activity of test compound for their anti-HCV efficacy.
Briefly, 6×10^3 Huh7-1 cells are incubated overnight in each well of collagen-coated BioCoat 96-well plates (BD Biosciences, Bedford, Mass.) in 0.2 ml 10% medium composed of Dulbecco's modified Eagle's medium supplemented with 10% fetal bovine serum. Subsequently, at 2 day intervals, the cultures are replenished with fresh 0.2 ml 10% medium. After the cultures become confluent, they continue to be replenished at 2 day intervals with fresh 0.2 ml 10% medium that also includes 1% dimethyl sulfoxide (DMSO). After 20 days of these replenishments, the Huh7-1 cultures are incubated with fresh 1% medium (same as 10% medium except that the serum level is 1%) containing HCV at a multiplicity of infection (MOI) of 0.05 focus forming units (ffu)/cell. The HCV (JFH-lwt Huh7) stock titer is 1.5×10^5 ffu/mL. The next day (day 1 post-infection) and 2 days later (day 3 post-infection) the media are replenished with fresh 1% medium containing the test compounds dissolved in DMSO. On the 5th day of treatment with the compounds, cell lysates are collected for RNA isolation and Real Time-quantitative Reverse Transcription Polymerase Chain Reaction (RT-qPCR) and culture media are collected for cytotoxicity analysis.
Total RNA is isolated from cells by the guanidine thiocyanate method using standard protocols. One μg RNA is used for cDNA synthesis using TaqMan reverse transcription reagents (Applied Biosystems, Foster City, Calif.) followed by real-time PCR using an Applied Biosystems 7300 real-time thermocycler. Thermal cycling consists of initial denaturation of 10 min at 95° C. followed by 40 cycles of denaturation (15 s at 95° C.) and annealing/extension (1 m at 60° C.). HCV and human glyceraldehyde-3-phosphate dehydrogenase (GAPDH) RNA levels are determined relative to a standard curve of serial dilutions of plasmid containing JFH-1 HCV or GAPDH cDNA. The PCR primers used to detect GAPDH and HCV are: GAPDH (NMX002046) 5′-[…]-3′(SEQ ID NO: 16) (sense) and 5′-[…]-3′(SEQ ID NO: 17) (anti-sense) JFH-1 HCV (AB047639) 5′-[…]-3′(SEQ ID NO: 18) (sense) and 5′-[…]-3′(SEQ ID NO: 19) (anti-sense).

HIV-Bal [1] = assay: HIV entry (real time RT-PCR of HIV LTR in pre-treated PBMCs); type: cell-based, HIV-1; conditions: 10 μM or 25 μM; PBMCs pre-treated 1 h and 4 h
Excerpt: The following primers are used to amplify HIV transcripts: HIV LTR, Forward 5′-[…] (SEQ ID NO: 1) and Reverse 5′-[…] (SEQ ID NO: 2) and GAPDH—Forward 5′-[…] (SEQ ID NO: 3) and Reverse 5′-[…] (SEQ ID NO: 4). GADPH is used as endogenous control.

HIV-Bal [2] = assay: HIV transcription (Rev, Gag and Env transcripts in infected PBMCs); type: cell-based, HIV-1; conditions: 72 h post-infection; in comparison with vehicle (DMSO)
Procedure: HIV transcription. […] Stimulated PBMCs are infected with HIV-Bal (2 ng/mL per 10^6 cells) for 4-6 h. PBMCs are then treated with compounds at desired concentrations and AZT (control) for 72 h post-infection. The cells are then washed three times with media and genomic RNA is prepared from samples using RNEasy MiniKit (Qiagen). Real time RT-PCR is performed to detect mature viral early (Rev) and late transcripts (Gag and Env). The following primers are used to amplify HIV transcripts: Rev, Forward 5′-[…] (SEQ ID NO: 7) and Reverse 5′-[…] (SEQ ID NO: 8); Env, Forward 5′-[…] (SEQ ID NO: 9) and Reverse 5′-[…] (SEQ ID NO: 10); Gag, Forward 5′-[…] (SEQ ID NO: 11) and Reverse 5′-[…] (SEQ ID NO: 12); GAPDH, Forward 5′-[…] (SEQ ID NO: 3) and Reverse 5′-[…] (SEQ ID NO: 4). GADPH is used as endogenous control.

HIV-Bal [3] = assay: HIV genomic DNA integration (ALU-PCR in infected PBMCs); type: cell-based, HIV-1; conditions: 72 h post-infection; in comparison with vehicle (DMSO)
Procedure: HIV Genomic DNA Integration. […] Stimulated PBMCs are infected with HIV-Bal (2 ng/mL per 10^6 cells) for 5 h. The PBMCs are then treated with compounds at desired concentrations and AZT (control) for 72 h post-infection. The cells are then washed three times with media. Genomic DNA is prepared from samples using DNeasy Blood and Tissue Kit (Qiagen). ALU-PCR is performed followed by real time PCR to quantify integrated viral genome. The following primers are used to amplify HIV transcripts: HIV LTR, Forward 5′-[…] (SEQ ID NO: 1) and Reverse 5′-[…] (SEQ ID NO: 2) and GAPDH—Forward 5′-[…] (SEQ ID NO: 3) and Reverse 5′-[…] (SEQ ID NO: 4). GADPH is used as endogenous control.

HIV-Bal [4] = assay: HIV reverse transcription assay (2LTR circles in infected PBMCs); type: cell-based, HIV-1; conditions: 72 h post-infection; in comparison with vehicle (DMSO)
Procedure: HIV reverse transcription assay. Compounds described herein inhibit 2LTR circles. Stimulated PBMCs are infected with HIV-Bal (2 ng/mL per 10^6 cells) for 5 h. PBMCs are then treated with compounds at desired concentrations and AZT (control) for 72 h post-infection. The cells are then washed three times with media and genomic DNA is prepared from samples using DNeasy Blood and Tissue Kit (Qiagen). For real time PCR analysis, the following primers are used to amplify 2LTR circles (by-products of reverse transcription): Forward 5′-[…] (SEQ ID NO: 5) and Reverse 5′-[…] (SEQ ID NO: 6). […] All results represent two or three independent experiments each performed in quadruplicates; *=p<0.05, **=p<0.01, ***=p<0.001 in comparison with vehicle ([…]).

[5] = tested on: Bovine Viral Diarrhea Virus strain NADL; assay: Anti-BVDV efficacy, cytopathic (CPE) assay in Bovine Turbinate cells (MTT); type: cell-based; conditions: cell survival at 10 μM compared to untreated control; TABLE 4(a)
Procedure: Assay for Anti-BVDV efficacy. Bovine Turbinate (BT) cells maintained as monolayers in disposable cell culture labware are used for the antiviral efficacy test. Prior to testing, host cell cultures are seeded onto the 96-well cell culture plates and used approximately 48 hours after seeding. […] The growth medium (GM) and maintenance medium (MM) include Dulbecco's Modified Eagle Media (DMEM) with L-glutamine (ATCC #30-2002), 10% Horse serum and penicillin/streptomycin (10,000 units of penicillin and 10,000 μg of streptomycin per mL, Life Technologies #15140-122 or similar) for a final concentration of 100 units penicillin and 100 μg streptomycin in the medium. Bovine Viral Diarrhea Virus strain NADL from BSLI high-titer virus stock is used. Prior to use, aliquots of the stock virus are removed and thawed from a −70° C. freezer. The BVDV is diluted in a maintenance medium (MM) to obtain 0.1 Multiplicity of Infection (MOI). Cytopathic (CPE) assay. CPE refers to degenerative changes in BT tissue culture induced by BVDV as a consequence of its multiplication. BT cell cultures are washed with PBS, and 100 μL aliquots of MM are added to the cells and incubated in a CO2 incubator for 2 hours. After incubation, the MM is removed; the cells washed again with PBS and overlaid with 100 μL of the different concentrations of test compounds. The plates are incubated in a CO2 incubator for 48 to 72 hours. […] This assay is a colorimetric assay that measures the activity of enzymes that reduce MTT to the purple color formazan dye. CPE is confirmed using an Inverted Compound Microscope.

Structure (SMILES) | HCV Antiviral Activity (JFH-1 HCV) | effect on HIV entry (HIV-Bal [1]) | inhibition of HIV transcription (Rev, Gag, Env) (HIV-Bal [2]) | inhibition of HIV viral integration (HIV-Bal [3]) | inhibition of HIV reverse transcription (2LTR circles) (HIV-Bal [4]) | BVDV Antiviral Activity [5]
CC#CC(=O)N1CCC(C(=O)Nc2cccc(-c3cc4ccccc4[nH]3)c2)CC1 [Example 57] | ++ (“++” corresponds to ≦60% viral titer at 5 μM) | did not have an effect on HIV entry | significantly inhibits viral transcription at each concentration; also recorded: significantly inhibits HIV transcription | significantly inhibits viral integration at each concentration; also recorded: significantly inhibits HIV viral integration | significantly inhibits HIV reverse transcription | +++ (“+++” corresponds to ≧75 cell survival at 10 μM)
COc1cccc(CN2CCC(C(=O)Nc3ccc(-c4nc5ccccc5[nH]4)cc3)CC2)c1 [Example 58] | ++ (“++” corresponds to ≦60% viral titer at 5 μM) | – | – | – | – | +++ (“+++” corresponds to ≧75 cell survival at 10 μM)
CCc1ccc(CN2CCC(C(=O)Nc3ccc(-c4nc5ccccc5[nH]4)cc3)CC2)o1 [Example 59] | ++ (“++” corresponds to ≦60% viral titer at 5 μM) | – | – | – | – | ++ (“++” corresponds to >50 but <75 cell survival at 10 μM)
O=C(Nc1cccc(-c2cc3ccccc3[nH]2)c1)C1CCN(C(=O)c2cncs2)CC1 [Example 60] | + (“+” corresponds to ≦60% viral titer at 15 μM) | – | – | – | – | +++ (“+++” corresponds to ≧75 cell survival at 10 μM)
Cc1c[nH]c2ncnc(N3CCC(C(=O)Nc4cccc(Br)c4)CC3)c12 [Example 103] | – | – | – | – | – | + (“+” corresponds to ≦50 cell survival at 10 μM, and improved survival over untreated control)

Reference: patent publication US9511070B2, “Heterocyclyl carboxamides for treating viral diseases” (NOVADRUG, LLC, priority 2012, dated 2016)
